We go through three compounds from PMC6981941 (International Journal of Molecular Sciences, 2019).

Assay [1] deals with T1, YpHddC (Yersinia pseudotuberculosis, UniProt Q8GJ90).
T1 construct: gene hddC

The target of assay [2] is T1, YpHddC. The source holds these as a separate data set.

The structures appear in SMILES notation.

T1 sequence (Q8GJ90 1-225 limits assumed): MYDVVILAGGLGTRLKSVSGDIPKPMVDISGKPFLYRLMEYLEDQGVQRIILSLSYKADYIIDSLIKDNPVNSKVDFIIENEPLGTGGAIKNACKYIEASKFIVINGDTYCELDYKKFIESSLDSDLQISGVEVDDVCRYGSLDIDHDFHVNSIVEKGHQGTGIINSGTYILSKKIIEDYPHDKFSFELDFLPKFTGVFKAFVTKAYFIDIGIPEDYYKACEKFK

For the compound `Nc1nc2c(ncn2[C@@H]2O[C@H](COP(=O)(O)OP(N)(=O)O)[C@@H](O)[C@H]2O)c(=O)[nH]1` [GMPPN], the “X-ray crystal structure, 1.55 Å” value at YpHddC [1] was “The extra densities were well matched with one magnesium, one GMPPN (Figure A1)”.

Take `Nc1nc2c(ncn2[C@@H]2O[C@H](COP(=O)(O)OP(=O)(O)OP(=O)(O)O)[C@@H](O)[C@H]2O)c(=O)[nH]1` [GTP]: the “malachite green assay with pyrophosphatase” value at YpHddC [2] is “The main molecular property of YpHddC is its GTP preference”.

Regarding `O=P(O)(O)O[C@H]1O[C@H](CO)[C@@H](O)[C@H](O)[C@@H]1O` [αM1P], at YpHddC [2], the “malachite green assay with pyrophosphatase” value is listed as “we used α-D-Mannose-1-phosphate (αM1P) purchased from Sigma for a substrate”.
